Read-outs that look alike come from different tables or passages of the source.

Test [1] concerns primary fibroblasts (healthy controls and PA, MMA, BCKDK, PDH, VLCAD, LS, PC, GA, VLCFA, KSS, FXN, HD). The experiment in a line: Measurement of ROS (H2DCFDA) in primary fibroblasts. It counts as cell-based, human. The following applies: Homo sapiens, procedure Example 812, Assay Condition C. On the procedure: Primary adherent fibroblasts were cultured in minimum essential medium (MEM) (Gibco, 25030081) supplemented with 2 mM L-Glutamine (Gibco, 25030081), 15% fetal bovine serum (FBS) (Gibco, 26400044) and 1% penicillin/streptomycin (Gibco, 5140122) at 37° C. and 5% CO2. Cells were collected for either passaging or experiment at ˜70-80% confluence. Cells were obtained by trypsinization and seeded in cell culture microplates either white plate (Thermo Fisher Scientific, 152028) for luminescent measurement or black plate (Thermo Fisher Scientific, 165305) for fluorescent based read out for different assays listed below. Cells were obtained by trypsinization and […] were seeded and allowed to adhere for 16-18 hours to have confluency around 70-80% in the cell well with culture media. After 24 hours prior to measurements (37° C., 5% CO2) media was changed to Dulbecco's Modified Eagle Medium (DMEM, Agilent Seahorse cat #103575-100) with the appropriate supplements as stated below.
Primary fibroblasts assayed were Healthy controls (GM00041, GM05659, GM23974 Coriell Institute for Medical Research), Propionic Acidemia (PA) (GM00371, GM03590 Coriell Institute for Medical Research, Tsi 6337 Trans-Hit Bio), Methylmalonic Acidemia (MMA) (GM01673, Coriell Institute for Medical Research, Tsi 5224, Tsi 4290 Trans-Hit Bio), Branched chain ketoacid dehydrogenase kinase (BCKDK) (GM00612, GM00649 Coriell Institute for Medical Research), Subnormal activation of pyruvate dehydrogenase complex (PDH) (GM01503 Coriell Institute for Medical Research), Very long-chain acyl-CoA dehydrogenase (VLCAD) (GM17475), Leigh Syndrome (LS) (GM03672, GM13411 Coriell Institute for Medical Research), Pyruvate Carboxylase Deficiency (PC) (GM00444 Coriell Institute for Medical Research), Glutaric Acidemia-I (GA), Impaired VLCFA oxidation (VLCFA) (GM13262), Kearns-Sayre Syndrome (KSS) (GM06225 Coriell Institute for Medical Research), Friedreich's Ataxia (FXN), Huntington's disease (HD) (GM21756 Coriell Institute for Medical Research). Next, cells were treated with compounds (10 μM) and ROS H2DCFDA (22 μM) dye for 2 hours in PA, MMA lines and for 24h for the other fibroblast lines. Kinetic read was started immediately with a i3x plate reader (492/527 nm) for 60 minutes.
A total dead cell count was performed as described in Example 817 and only alive cells were used for analysis.

The subject of test [2] is Methylmalonic Acidemia (MMA) primary fibroblasts Tsi 5224. The experiment in a line: Mitochondrial respiration, XFe96 Extracellular Flux Analyzer (OCR/ECAR), MMA fibroblasts Tsi 5224.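 On Increase in Maximal Respiratory Capacity AUC: relative to vehicle DMSO control.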 It counts as cell-based. The note with it: Homo sapiens, Fibroblast. Here is the method: The effect of the compounds of the present disclosure on mitochondrial respiration was measured with a XFe96 Extracellular Flux Analyzer (Seahorse Bioscience, Agilent Technologies) and Oxygen consumption Rate (OCR) and Extracellular acidification rate (ECAR) determined.
Cell culture and treatments. Primary adherent fibroblasts were cultured in minimum essential medium (MEM) (Gibco, 25030081) supplemented with 2 mM L-Glutamine (Gibco, 25030081), 15% fetal bovine serum (FBS) (Gibco, 26400044) and 1% penicillin/streptomycin (Gibco, 5140122) at 37° C. and 5% CO2. Cells were collected for either passaging or experiment at ˜70-80% confluence. Cells were obtained by trypsinization and seeded at 20000 cells/well in cell culture microplates (Seahorse Bioscience, 101085-004) and allowed to adhere for 16 hours in culture media.
By profiling different primary cells and/or optimizing their culture media or environmental components one can select cell lines and/or conditions that are appropriate for the biological or disease model. In the present example, 24 hours prior to OCR and ECAR profiling, media was changed to Dulbecco's Modified Eagle Medium (DMEM, Agilent Seahorse 103575-100) with the appropriate supplements for the different primary cells (10 mM glucose, 2 mM L-glutamine, 1 mM pyruvate, 10% FBS; 1 mM glucose, 2 mM L-glutamine, 1 mM pyruvate, 10% FBS; 10 mM glucose, 10% FBS; 5 mM glucose 10% FBS; 1 mM glucose 10% FBS). Cells used in this example were: Propionic Acidemia (PA) (GM00371, GM03590 Coriell Institute for Medical Research, Tsi 6337, Tsi 4626, Tsi 3618 Trans-Hit Bio), Methylmalonic Acidemia (MMA) (GM01673, Coriell Institute for Medical Research, Tsi 5224 Trans-Hit Bio), Branched chain ketoacid dehydrogenase kinase (BCKDK) (GM00612, GM00649 Coriell Institute for Medical Research), Subnormal activation of pyruvate dehydrogenase complex (PDH) (GM01503 Coriell Institute for Medical Research), Very long-chain acyl-CoA dehydrogenase (VLCAD) (GM17475), Leigh Syndrome (LS) (GM03672, GM13411 Coriell Institute for Medical Research), Pyruvate Carboxylase Deficiency (PC) (GM00444 Coriell Institute for Medical Research), Glutaric Acidemia-I (GA) (GM10653), Friedreich's Ataxia (FXN) (GM04078 Coriell Institute for Medical Research, Huntington's disease (HD) (GM21756 Coriell Institute for Medical Research), Ornithine Transcarbamylase Deficiency (OTC) (GM12756 Coriell Institute for Medical Research), Kearns-Sayre Syndrome (KSS) (GM06225 Coriell Institute for Medical Research).
One hour before the assay, the cells were washed with freshly prepared unbuffered serum free-Seahorse XF Assay medium (Seahorse Bioscience, North America, USA, 103575-100) with the same supplements as for the previous 24 hour incubation.
After baseline measurements of OCR, cells were challenged with compounds of the present disclosure at different concentrations (10 to 50 μM) or vehicle (DMSO, 0.1%) and a post-compound baseline was recorded. OCR was measured after sequentially adding to each well 1 μg/ml oligomycin (inhibitor of ATP synthase Sigma-Aldrich, 753531), then maximal OCR was determined with carbonyl cyanide 4-(trifluoromethoxy) phenylhydrazone (FCCP, Sigma-Aldrich, C2920), (uncoupler of oxidative phosphorylation) and 0.5 μM of rotenone (Sigma-Aldrich, R8875) plus antimycin A (Sigma-Aldrich, A8674) (inhibitors of mitochondrial complex I and III) for determination of rotenone-antimycin insensitive respiration together with Hoechst for nuclear staining in situ when normalized to cell counts. After the analysis and nuclear staining, the XFp microplate was transferred to the Cytation 5, and the nuclear images were captured, the individual nuclei were identified and counted by BioTek Gen5 software. Data were expressed as pmol of O2 per minute and normalized by nuclear staining and baselined to pre-compound addition.
Assay conditions were as stated below.
Assay specifics on assay conditions are indicated below when readouts were normalized to cell counts. […]

Test [3] has as its system monocyte-derived M1 macrophages. Kind of test: M1 differentiation assay (macrophage TNFα, IL6, IL10 ELISA, FACS). Format: cell-based, human. Here is the method: Monocytes were isolated by positive isolation with CD14+ microbeads (Miltenyi, 130-050-201). Monocytes were 99% viable and were 96% purity as analyzed by FACS and CD14+ (BD, 563561). 100,000 monocytes along with compounds at the dose of 10 and 50 μM were allowed to differentiate to macrophages with 10 ng/ml GMCSF (R&D, 15-GM-050/CF) in RPMI complete media (Invitrogen, 22400089) with 15% FBS (Hyclone SV30087.03) and 1% Penicillin-Streptomycin (Gibco, 15140-122). On day 2 and 4 half the media was refreshed with fresh GM-CSF and compounds at 10 and 50 μM dose. On day 6 the macrophages were matured with GMCSF, IFNγ (R&D 285-IF-100/CF) and LPS (Sigma, L6143) in the presence of 10 μM and 50 μM of compounds. After 24h, supernatant was collected for the measurement of TNFα (DKW, 1117202) IL6 (DKW, 1110602), IL10 (DKW, 1110003) by ELISA. Macrophages were detached gently on ice with EDTA (Invitrogen, 15575-038) and analyzed by FACS (BD LSR Fortessa, 853492). Cells were stained for live/dead dye, surface and intracellular markers with fixation/permeabilization solution (BD, 554714) and ALIVE/DEAD™ Fixable Near-IR Dead Cell Stain Kit (BD, L34976), mouse anti human CD86 APC (BD, 555660), mouse anti-human CD163 PE (BD, 556018), mouse anti-human CD68 FITC (BD, 562117) or isotype controls anti-mouse IgG1 κ PE (BD, 559320) and anti-mouse IgG1 κ APC (BD, Anti mouse IgG1 κ APC (BD, 55571). Mature M1 macrophages were defined as CD86+CD68+CD163− and increase in TNFα, IL6, and decrease in IL-10.
(ELISA stands for enzyme-linked immunosorbent assay.)

Test [4] concerns Propionic Acidemia (PA) primary fibroblasts GM00371. The experiment in a line: Mitochondrial respiration, XFe96 Extracellular Flux Analyzer (OCR/ECAR), PA fibroblasts GM00371. It counts as cell-based. The note with it: Homo sapiens, Fibroblast, assay condition C (10 mM glucose, 10% FBS), 50 μM, read-out: Increase in Maximal Respiratory Capacity AUC.
Setting [5] is: Fibroblast, PC GM00444, read-out: Decreased ROS by at least 10%.
Setting [6] is: Fibroblast, PC GM00444, read-out: Decreased ROS by at least 30%.
Setting [7] is: FXN GM04078, read-out: Decreased ROS by at least 10%.
Where [8] appears, read: FXN GM04078, read-out: Decreased ROS by at least 30%.
[9] abbreviates: MMA Tsi 5224, assay condition D (1 mM glucose, 10% FBS), read-out: Increase in Maximal Respiratory Capacity AUC.
Where [10] appears, read: MMA Tsi 5224, assay condition A (10 mM glucose, 2 mM L-glutamine, 1 mM pyruvate, 10% FBS), read-out: Increase in Maximal Respiratory Capacity AUC.

Consider `COC(=O)[C@@H](N)CCC(=O)SCCNC(=O)CCNC(=O)[C@H](O)C(C)(C)CO` [Compound 412, methyl (2S)-2-amino-5-[(2-[3-[(2R)-2,4-dihydroxy-3,3-dimethylbutanamido]propanamido]ethyl)sulfanyl]-5-oxopentanoate], for which the inhibition at 10 µM in test [1] (setting [5]) is at least 10%; in test [1] (setting [6]) it was at least 30%; in test [1] (setting [7]), at least 10%; in test [1] (setting [8]), at least 30%.

As to `COC(=O)CC(SCCNC(=O)CCNC(=O)[C@H](O)C(C)(C)COP(=O)(O)O)C(=O)OC` (stereo partly drawn) [Compound 86, dimethyl 2-((2-(3-((R)-2-hydroxy-3,3-dimethyl-4-(phosphonooxy)butanamido)propanamido)ethyl)thio)succinate], the activation at 10 µM in test [2] (setting [9]) was at least 10%. Further, in test [3] (10 uM), the “% Increase in Live Macrophage Cells” value is listed as at least 20%.

For `COC(=O)[C@@H](N)CC(=O)SCCNC(=O)CCNC(=O)[C@H](O)C(C)(C)CO` [Compound 415], the activation at 10 µM in test [2] (MMA Tsi 5224, assay condition D (1 mM glucose, 10% FBS), read-out: Increase in Spare Capacity AUC) is at least 10%; in test [3] (Homo sapiens, Macrophage, 10 uM, read-out: % Increase in IL-10 Secretion), at least 30%. Besides, the “% decrease in Live Macrophage Cells” value in test [3] (50 uM) is at least 20%. In addition, the inhibition at 10 µM in test [3] (Homo sapiens, Macrophage, 10 uM, read-out: % decrease in Macrophage IL-6 Secretion) is at least 30%; in test [3] (Homo sapiens, Macrophage, 10 uM, read-out: % decrease in Macrophage TNFα Secretion), at least 30%.

With `CC(=O)C(C)C(=O)SCCNC(=O)CCNC(=O)[C@H](O)C(C)(C)CO` (stereo partly drawn) [Compound 396, (2R)-2,4-dihydroxy-3,3-dimethyl-N-[2-([2-[(2-methyl-3-oxobutanoyl)sulfanyl]ethyl]carbamoyl)ethyl]butanamide], the activation at 50 µM in test [4] is at least 10%. The inhibition at 10 µM in test [1] (setting [5]) was at least 10%; in test [1] (setting [6]) it was at least 30%.

For the molecule `CC(C)(C)OC(=O)N[C@@H](CC(=O)SCCNC(=O)CCNC(=O)[C@H](O)C(C)(C)CO)C(=O)OC(C)(C)C` [Compound 1318], the activation at 10 µM in test [2] (MMA Tsi 5224, assay condition B (1 mM glucose, 2 mM L-glutamine, 1 mM pyruvate, 10% FBS), read-out: Increase in Spare Capacity AUC) is at least 10%.

`COC(=O)C(=O)SCCNC(=O)CCNC(=O)[C@H](O)C(C)(C)CO` [Compound 30, Methyl (R)-2-((2-(3-(2,4-dihydroxy-3,3-dimethylbutanamido)propanamido)ethyl)thio)-2-oxoacetate]: in test [2] (setting [10]), the activation at 10 µM was at least 10%.

`CC(O)CC(=O)CC(=O)CC(=O)SCCNC(=O)CCNC(=O)[C@H](O)C(C)(C)CO` (stereo partly drawn) [Compound 379]: the inhibition at 10 µM in test [1] (setting [7]) was at least 10%.

Turning to `CC(C)(COC(=O)CCC(=O)O)[C@@H](O)C(=O)NCCC(=O)NCCSC(=O)CCC(=O)O` [Compound 1232], the activation at 10 µM in test [2] (setting [10]) and in test [2] (setting [9]) was at least 10% each time. The inhibition at 10 µM in test [1] (Fibroblast, VLCFA GM13262, read-out: Decreased ROS by at least 10%) is at least 10%; in test [1] (Fibroblast, VLCFA GM13262, read-out: Decreased ROS by at least 30%) it was at least 30%; in test [1] (setting [7]), at least 10%; in test [1] (setting [8]), at least 30%.

On to `COC(=O)CCC(=O)CC(=O)SCCNC(=O)CCNC(=O)[C@H](O)C(C)(C)CO` [Compound 5, methyl 6-[(2-[3-[(2R)-2,4-dihydroxy-3,3-dimethylbutanamido]propanamido]ethyl)sulfanyl]-4,6-dioxo-hexanoate], for which the activation at 50 µM in test [4] was at least 10%.

For the origin of these results see patent US20230107216A1, “PANTETHEINE DERIVATIVES AND USES THEREOF” (Comet Therapeutics, Inc., priority 2018, published 2023).
